Legend:
[1] = molar heat capacity at constant pressure; conditions: 101.33 kPa, Liquid, Small sample (50 mg) DSC
[2] = 101.33 kPa, Liquid; for viscosity: Concentric cylinders viscometry; for mass density: Vibrating tube method

CCCCn1cc[n+](C)c1.[Cl][Fe-]([Cl])([Cl])[Cl] [1-butyl-3-methylimidazolium tetrachloroferrate]
Conditions | mass density [kg/m3] | molar heat capacity at constant pressure [J/K/mol] | viscosity [mPa·s]
[1], 308.16 K | – | 436.39 | –
[1], 313.16 K | – | 446.09 | –
[1], 318.16 K | – | 446.39 | –
[1], 323.16 K | – | 447.13 | –
[1], 328.22 K | – | 449.63 | –
[1], 333.22 K | – | 451.03 | –
[1], 338.19 K | – | 452.53 | –
[1], 343.18 K | – | 456.2 | –
[1], 348.25 K | – | 457.4 | –
[1], 353.18 K | – | 457.95 | –
[1], 358.25 K | – | 459.31 | –
[1], 363.18 K | – | 460.92 | –
[1], 368.17 K | – | 461.57 | –
[1], 373.21 K | – | 462.88 | –
[1], 378.2 K | – | 463.64 | –
[1], 383.17 K | – | 465.82 | –
[1], 388.2 K | – | 465.66 | –
[1], 393.17 K | – | 466.11 | –
[1], 398.2 K | – | 467.83 | –
[1], 403.2 K | – | 469.12 | –
[1], 408.16 K | – | 469.7 | –
[1], 413.19 K | – | 469.42 | –
[1], 418.19 K | – | 471.44 | –
[1], 423.22 K | – | 470.84 | –
[2], 278.15 K | – | – | 103.3
[2], 283.15 K | – | – | 79.5
[2], 288.15 K | – | – | 62.6
[2], 293.15 K | 1370 | – | 50.2
[2], 294.15 K | 1369.2 | – | –
[2], 295.15 K | 1368.3 | – | –
[2], 296.15 K | 1367.5 | – | –
[2], 297.15 K | 1366.7 | – | –
[2], 298.15 K | 1365.8 | – | 41
[2], 299.15 K | 1365 | – | –
[2], 300.15 K | 1364.2 | – | –
[2], 301.15 K | 1363.3 | – | –
[2], 302.15 K | 1362.5 | – | –
[2], 303.15 K | 1361.7 | – | 33.9
[2], 304.15 K | 1360.9 | – | –
[2], 305.15 K | 1360.1 | – | –
[2], 306.15 K | 1359.2 | – | –
[2], 307.15 K | 1358.4 | – | –
[2], 308.15 K | 1357.6 | – | 28.5
[2], 309.15 K | 1356.8 | – | –
[2], 310.15 K | 1356 | – | –
[2], 311.15 K | 1355.1 | – | –
[2], 312.15 K | 1354.3 | – | –
[2], 313.15 K | 1353.5 | – | 24.2
[2], 314.15 K | 1352.7 | – | –
[2], 315.15 K | 1351.9 | – | –
[2], 316.15 K | 1351.1 | – | –
[2], 317.15 K | 1350.3 | – | –
[2], 318.15 K | 1349.5 | – | 20.8
[2], 319.15 K | 1348.7 | – | –
[2], 320.15 K | 1347.8 | – | –
[2], 321.15 K | 1347 | – | –
[2], 322.15 K | 1346.2 | – | –
[2], 323.15 K | 1345.4 | – | 18.1
[2], 324.15 K | 1344.6 | – | –
[2], 325.15 K | 1343.8 | – | –
[2], 326.15 K | 1343 | – | –
[2], 327.15 K | 1342.2 | – | –
[2], 328.15 K | 1341.4 | – | 15.8
[2], 329.15 K | 1340.6 | – | –
[2], 330.15 K | 1339.8 | – | –
[2], 331.15 K | 1339 | – | –
[2], 332.15 K | 1338.2 | – | –
[2], 333.15 K | 1337.4 | – | 13.9
[2], 334.15 K | 1336.6 | – | –
[2], 335.15 K | 1335.9 | – | –
[2], 336.15 K | 1335.1 | – | –
[2], 337.15 K | 1334.3 | – | –
[2], 338.15 K | 1333.5 | – | 12.4
[2], 339.15 K | 1332.7 | – | –
[2], 340.15 K | 1331.9 | – | –
[2], 341.15 K | 1331.1 | – | –
[2], 342.15 K | 1330.3 | – | –
[2], 343.15 K | 1329.5 | – | 11.1
[2], 344.15 K | 1328.7 | – | –
[2], 345.15 K | 1328 | – | –
[2], 346.15 K | 1327.2 | – | –
[2], 347.15 K | 1326.4 | – | –
[2], 348.15 K | 1325.6 | – | 10
[2], 349.15 K | 1324.8 | – | –
[2], 350.15 K | 1324 | – | –
[2], 351.15 K | 1323.3 | – | –
[2], 352.15 K | 1322.5 | – | –
[2], 353.15 K | 1321.7 | – | 9
[2], 354.15 K | 1320.9 | – | –
[2], 355.15 K | 1320.1 | – | –
[2], 356.15 K | 1319.4 | – | –
[2], 357.15 K | 1318.6 | – | –
[2], 358.15 K | 1317.8 | – | 8.2
[2], 359.15 K | 1317 | – | –
[2], 360.15 K | 1316.3 | – | –
[2], 361.15 K | 1315.5 | – | –
[2], 362.15 K | 1314.7 | – | –
[2], 363.15 K | 1313.9 | – | 7.5
[2], 368.15 K | – | – | 6.9
[2], 373.15 K | – | – | 6.3

Source: the NIST ThermoML archive (doi:10.1016/j.fluid.2013.03.001)
